Values of other authors in US20200368163A1, “EN[…]-DISPERSIBLE CANNABINOID NANOPARTICLE COMPOSITIONS, METHODS AND SYSTEMS” (The Trustees of Princeton University, priority 2019, published 2020).

## C=C(C)[C@@H]1CCC(C)=C[C@H]1c1c(O)cc(CCCCC)cc1O [CBD, Cannabidiol]
  log P: ~6
